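The compound was tested at five concentrations on cells cultured in 96-well plates, with a 48-hour exposure period. At the TGI there is no net growth.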
Tests used:
Assay in all cases: growth of human tumour cells (NCI), 48 h
SR leukemia = system: SR leukemia
HT29 colon = system: HT29 colon
MOLT-4 leukemia = system: MOLT-4 leukemia
NCI/ADR-RES ovarian = system: NCI/ADR-RES ovarian
MDA-N = system: MDA-N
MDA-MB-435 = system: MDA-MB-435
T-47D breast = system: T-47D breast
COLO 205 colon = system: COLO 205 colon
SW-620 colon = system: SW-620 colon
HCC-2998 colon = system: HCC-2998 colon
NCI-H23 lung = system: NCI-H23 lung
OVCAR-3 ovarian = system: OVCAR-3 ovarian
MDA-MB-231 breast = system: MDA-MB-231 breast
HS 578T breast = system: HS 578T breast
HOP-92 NSCLC = system: HOP-92 NSCLC
MALME-3M melanoma = system: MALME-3M melanoma
HOP-62 NSCLC = system: HOP-62 NSCLC
NCI-H522 lung = system: NCI-H522 lung
HCT-15 colon = system: HCT-15 colon
CAKI-1 renal = system: CAKI-1 renal
HCT-116 colon = system: HCT-116 colon
M14 melanoma = system: M14 melanoma
U251 CNS = system: U251 CNS
OVCAR-8 ovarian = system: OVCAR-8 ovarian
786-0 renal = system: 786-0 renal
IGROV1 ovarian = system: IGROV1 ovarian
A498 renal = system: A498 renal
UO-31 renal = system: UO-31 renal
SN12C renal = system: SN12C renal
UACC-257 melanoma = system: UACC-257 melanoma
SK-OV-3 ovarian = system: SK-OV-3 ovarian
EKVX NSCLC = system: EKVX NSCLC
SF-268 CNS = system: SF-268 CNS
ACHN renal = system: ACHN renal
UACC-62 melanoma = system: UACC-62 melanoma
SF-539 CNS = system: SF-539 CNS
A549 NSCLC = system: A549 NSCLC
DU-145 prostate = system: DU-145 prostate
SK-MEL-5 melanoma = system: SK-MEL-5 melanoma
CCRF-CEM leukemia = system: CCRF-CEM leukemia
BT-549 breast = system: BT-549 breast
OVCAR-5 ovarian = system: OVCAR-5 ovarian
MCF7 breast = system: MCF7 breast
SNB-75 CNS = system: SNB-75 CNS
TK-10 renal = system: TK-10 renal
SNB-19 CNS = system: SNB-19 CNS
RXF 393 renal = system: RXF 393 renal
NCI-H460 lung = system: NCI-H460 lung
SF-295 CNS = system: SF-295 CNS
K-562 leukemia = system: K-562 leukemia
KM12 colon = system: KM12 colon
PC-3 prostate = system: PC-3 prostate
OVCAR-4 ovarian = system: OVCAR-4 ovarian
SK-MEL-28 melanoma = system: SK-MEL-28 melanoma
SK-MEL-2 melanoma = system: SK-MEL-2 melanoma
LOX IMVI melanoma = system: LOX IMVI melanoma
HL-60(TB) leukemia = system: HL-60(TB) leukemia

c1csc(-c2cc(-c3ccsc3)c(-c3ccsc3)s2)c1
TGI (SR leukemia): > 100 µM | TGI (HT29 colon): > 100 µM | TGI (MOLT-4 leukemia): > 100 µM | TGI (NCI/ADR-RES ovarian): > 100 µM | TGI (MDA-N): > 100 µM | TGI (MDA-MB-435): > 100 µM | TGI (T-47D breast): 54.2 µM | TGI (COLO 205 colon): > 100 µM | TGI (SW-620 colon): > 100 µM | TGI (HCC-2998 colon): > 100 µM | TGI (NCI-H23 lung): > 100 µM | TGI (OVCAR-3 ovarian): > 100 µM | TGI (MDA-MB-231 breast): > 100 µM | TGI (HS 578T breast): > 100 µM | TGI (HOP-92 NSCLC): > 100 µM | TGI (MALME-3M melanoma): > 100 µM | TGI (HOP-62 NSCLC): > 100 µM | TGI (NCI-H522 lung): > 100 µM | TGI (HCT-15 colon): > 100 µM | TGI (CAKI-1 renal): > 100 µM | TGI (HCT-116 colon): > 100 µM | TGI (M14 melanoma): > 100 µM | TGI (U251 CNS): > 100 µM | TGI (OVCAR-8 ovarian): > 100 µM | TGI (786-0 renal): > 100 µM | TGI (IGROV1 ovarian): > 100 µM | TGI (A498 renal): > 100 µM | TGI (UO-31 renal): > 100 µM | TGI (SN12C renal): > 100 µM | TGI (UACC-257 melanoma): > 100 µM | TGI (SK-OV-3 ovarian): > 100 µM | TGI (EKVX NSCLC): 90.8 µM | TGI (SF-268 CNS): > 100 µM | TGI (ACHN renal): > 100 µM | TGI (UACC-62 melanoma): > 100 µM | TGI (SF-539 CNS): > 100 µM | TGI (A549 NSCLC): > 100 µM | TGI (DU-145 prostate): > 100 µM | TGI (SK-MEL-5 melanoma): > 100 µM | TGI (CCRF-CEM leukemia): > 100 µM | TGI (BT-549 breast): > 100 µM | TGI (OVCAR-5 ovarian): > 100 µM | TGI (MCF7 breast): > 100 µM | TGI (SNB-75 CNS): > 100 µM | TGI (TK-10 renal): > 100 µM | TGI (SNB-19 CNS): > 100 µM | TGI (RXF 393 renal): > 100 µM | TGI (NCI-H460 lung): > 100 µM | TGI (SF-295 CNS): > 100 µM | TGI (K-562 leukemia): > 100 µM | TGI (KM12 colon): > 100 µM | TGI (PC-3 prostate): > 100 µM | TGI (OVCAR-4 ovarian): > 100 µM | TGI (SK-MEL-28 melanoma): > 100 µM

CCNCCCNc1c2ccccc2nc2ccccc12
TGI (SR leukemia): 1.83 µM | TGI (HT29 colon): > 100 µM | TGI (MOLT-4 leukemia): > 100 µM | TGI (NCI/ADR-RES ovarian): 10.2 µM | TGI (MDA-N): 1.26 µM | TGI (MDA-MB-435): 1.77 µM | TGI (T-47D breast): 3.35 µM | TGI (COLO 205 colon): 0.761 µM | TGI (SW-620 colon): 1.46 µM | TGI (HCC-2998 colon): 0.643 µM | TGI (NCI-H23 lung): 2.14 µM | TGI (OVCAR-3 ovarian): 2 µM | TGI (SK-MEL-2 melanoma): 1.95 µM | TGI (MDA-MB-231 breast): 2.5 µM | TGI (HS 578T breast): 3.13 µM | TGI (HOP-92 NSCLC): 3.11 µM | TGI (MALME-3M melanoma): 2.26 µM | TGI (HOP-62 NSCLC): 2.37 µM | TGI (NCI-H522 lung): 0.7 µM | TGI (HCT-15 colon): 1.54 µM | TGI (CAKI-1 renal): 1.23 µM | TGI (HCT-116 colon): 8.36 µM | TGI (M14 melanoma): 0.95 µM | TGI (U251 CNS): > 100 µM | TGI (OVCAR-8 ovarian): 3.7 µM | TGI (786-0 renal): 5.39 µM | TGI (IGROV1 ovarian): 4.3 µM | TGI (A498 renal): 3.2 µM | TGI (UO-31 renal): 2.63 µM | TGI (SN12C renal): 2.2 µM | TGI (UACC-257 melanoma): 1.7 µM | TGI (SK-OV-3 ovarian): 6.55 µM | TGI (EKVX NSCLC): 21.2 µM | TGI (SF-268 CNS): 4.47 µM | TGI (ACHN renal): 0.47 µM | TGI (LOX IMVI melanoma): 1.08 µM | TGI (UACC-62 melanoma): 1.62 µM | TGI (HL-60(TB) leukemia): 54.9 µM | TGI (SF-539 CNS): 1.21 µM | TGI (A549 NSCLC): 3.38 µM | TGI (DU-145 prostate): 4.01 µM | TGI (SK-MEL-5 melanoma): 1.47 µM | TGI (CCRF-CEM leukemia): 10.1 µM | TGI (BT-549 breast): 10.5 µM | TGI (OVCAR-5 ovarian): 1.04 µM | TGI (MCF7 breast): 0.625 µM | TGI (SNB-75 CNS): 1.58 µM | TGI (TK-10 renal): 16 µM | TGI (SNB-19 CNS): 2.98 µM | TGI (RXF 393 renal): 2.83 µM | TGI (NCI-H460 lung): 0.585 µM | TGI (SF-295 CNS): 2.81 µM | TGI (K-562 leukemia): 1.64 µM | TGI (KM12 colon): 2.04 µM | TGI (PC-3 prostate): 0.816 µM | TGI (OVCAR-4 ovarian): 3.2 µM | TGI (SK-MEL-28 melanoma): 1.48 µM

Source: PubChem BioAssay (NCI)
